From US20250223331A1, “GLP-1/GIP DUAL-TARGETED POLYPEPTIDE AND FUSION PROTEIN AND APPLICATIONS THEREOF” (SUNSHINE LAKE PHARMA CO., LTD., priority 2021, published 2025)
Marks after values point to notes of the source that are not given here. Where no end group is shown, it is not given here.

Columns and labels:
GIPR = biological target: T1, GIPR (Homo sapiens, UniProt P48546); assay: cAMP assay, in vitro activity of polypeptides, HEK293-GIPR cells; format: cell-based; conditions: read-out: Ec50(nM) of the peptide GIPR
T1 construct: expressed in transfected cells; host or cells: HEK293 (pcDNA3.1, G418-selected single clone)
T1 sequence (P48546 22-466): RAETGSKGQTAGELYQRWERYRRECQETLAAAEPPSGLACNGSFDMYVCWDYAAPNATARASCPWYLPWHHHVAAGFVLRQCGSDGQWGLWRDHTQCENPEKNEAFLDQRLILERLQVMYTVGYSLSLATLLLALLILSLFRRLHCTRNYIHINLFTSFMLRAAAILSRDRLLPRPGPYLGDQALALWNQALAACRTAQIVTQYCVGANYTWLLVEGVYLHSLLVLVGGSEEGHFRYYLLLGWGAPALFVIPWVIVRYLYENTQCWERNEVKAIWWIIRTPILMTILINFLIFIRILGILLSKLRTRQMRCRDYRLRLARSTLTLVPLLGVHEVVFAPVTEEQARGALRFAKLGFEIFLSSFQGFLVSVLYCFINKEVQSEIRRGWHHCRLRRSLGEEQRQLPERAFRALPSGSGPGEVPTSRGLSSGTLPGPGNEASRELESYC
Procedure: (§1) The digested product was electrophoresed on 1% agarose gel and the target band was cut out with a clean blade, then a gel recovery kit was used to recover the target fragment. The specific experimental operations are carried out according to the kit instructions; • 3) The target fragment enzymatic digestion recovery product and vector plasmid pcDNA3.1 fragment were connected through T4 ligase and transformed into DH5a competent cells, then single colonies were isolated by spreading on plates, and the transformants were selected and expanded for enzyme digestion verification and sequencing verification. • 4) 200 mL of the bacterial liquid obtained in inoculation step 3) and verified by sequencing to contain the fusion protein of the target product was used for plasmid extraction. The kit used was PureLink HiPure Plasmid Maxiprep Kit, and according to the instructions. […] Finally, the ethanol precipitation method was used to recover the plasmid. • 5) The host cells were HEK293, one day before transfection, the cells were spread into a 6-well plate at a density of 2×10^6 cells/well, and the addition volume was 1 mL/well.
(§2) Using a cAMP detection kit (Cisbio, 62AM6PEC) to detect cAMP produced by the recipient cells according to the steps described in the operating instructions. […] If the mixture was not completely melted within 1.5 min, the cells were added dropwise to a 15 mL centrifuge tube containing 8 mL warm culture medium on a clean bench, then centrifuged at 900 rpm for 5 min, the supernatant was discarded, and the cells were re-suspended with 1 mL complete culture medium (15 times by pipetting).

GLP-1R = GLP-1R (Homo sapiens, UniProt P43220); assay: cAMP assay, in vitro activity of polypeptides, HEK293-GLP-1R cells; format: cell-based; parameters: expressed in transfected cells; host or cells: HEK293 (pcDNA3.1, G418-selected single clone); conditions: for EC50: HEK293-GLP-1R, cAMP, read-out: Ec50(nM) of the peptide GLP-1R; for GLP-1R agonistic activity: peptides
Procedure: as §1, §2

db/db mice = assay: in vivo efficacy in db/db mouse model, blood glucose; conditions: 10 nmol/kg s.c.
Procedure: Methods: 7-8 week old db/db mice were randomly divided into 3 groups (Model group, Semaglutide group, HEC-G20 group) according to blood glucose and body weight, with 9 mice in each group. For the groups of Semaglutide (Semaglutide was purchased from Novo Nordisk, lot number was JP52092) and HEC-G20, the corresponding drug was administered subcutaneously into the mice at a dose of 10 nmol/kg for each group, and for the Model group, the corresponding vehicle was injected subcutaneously. The Semaglutide group was dosed once a day, and the HEC-G20 group was dosed twice a week for a total of 4 weeks, and animal blood glucose was tested before each dose.

DIO mice = assay: in vivo efficacy in DIO model: body weight, food intake, liver, blood biochemistry
From the text: Experimental methods: C57/BL6 mice were randomly divided into normal group NFD and model group HFD at the fifth week of age, and the normal group was fed with ordinary maintenance diet, while the model group was fed with high-fat diet D12492. Changes in body weight and food intake in mice were monitored every 3 weeks. After 16 weeks of feeding, the body weight of mice in the model group and the normal group were (47.9±3.4) g and (29.6±1.5) g, respectively, and the difference between the two groups was statistically significant. The normal group was divided into the control group, and the model group mice that were successfully modeled were divided into Vehicle group, Semaglutide group, HEC-G115 group and HEC-G124 group, with 10 mice in each group. For the groups of Semaglutide, HEC-G115 and HEC-G124, the corresponding drug was injected subcutaneously in each group, and PBS was injected subcutaneously in the Vehicle group. […] Weight and food intake were measured before each dose. After 3 weeks of administration, an intraperitoneal glucose tolerance test was performed. After 72 h of the last administration, samples were collected, liver weight was recorded, and liver pathological status and blood biochemical indexes were detected in each group.

[1] = long-term administration 10 nmol/kg s.c., 72 h after last administration
[2] = long-term administration 10 nmol/kg s.c., blood biochemistry

Chain of GLP-1R (P43220 24-463, species assumed): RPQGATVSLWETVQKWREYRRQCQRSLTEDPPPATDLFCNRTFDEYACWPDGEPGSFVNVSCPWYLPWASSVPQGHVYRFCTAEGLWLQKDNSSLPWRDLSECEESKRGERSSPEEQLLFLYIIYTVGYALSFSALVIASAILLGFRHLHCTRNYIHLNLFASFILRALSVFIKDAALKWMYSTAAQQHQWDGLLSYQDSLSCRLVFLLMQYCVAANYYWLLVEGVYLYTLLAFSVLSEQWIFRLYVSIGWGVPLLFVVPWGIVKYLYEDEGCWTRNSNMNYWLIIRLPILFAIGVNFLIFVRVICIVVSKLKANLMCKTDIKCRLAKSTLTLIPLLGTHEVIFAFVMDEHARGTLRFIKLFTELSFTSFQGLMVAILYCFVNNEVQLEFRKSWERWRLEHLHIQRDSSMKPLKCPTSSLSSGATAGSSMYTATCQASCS

Q: Which EC50 (GIPR) does the source give for “YSEGTFTSDYSILLDKIAQREFVQWLLAGGPSSGAPPPS [CG123, YSEGTFTSDYSILLDKIAQREFVQWLLAG GPSSGAPPPS]” here?
A: Its EC50 is 0.044 nM.

Q: And the EC50 (GLP-1R)?
A: Its EC50 is 0.879 nM.

Q: Which EC50 (GIPR) does the source give for “YSEGTFTSDYSILLDKIAQQDFVEWLLAGGPSSGAPPPS [CG133, YSEGTFTSDYSILLDKIAQQDFVEWLLAG GPSSGAPPPS]” here?
A: The EC50 was 0.017 nM.

Q: What about the EC50 (GLP-1R) of the same substance?
A: Its EC50 is 8.18 nM.

Q: What about the “GLP-1R agonistic activity” value (GLP-1R) of the same substance?
A: The value was “weaker GLP-1R agonistic activities”.

Q: For “YSEGTFTSDYSILLDKIAQREFVQWLIAGGPSSGAPPPS [CG124, YSEGTFTSDYSILLDKIAQREFVQWLIAG GPSSGAPPPS]”, which EC50 (GIPR) is on record?
A: The EC50 was 0.041 nM.

Q: And the EC50 (GLP-1R)?
A: Its EC50 is 0.232 nM.

Q: “YSEGTFTSDYSILLDKIAQQEFIEWLLAGGPSSGAPPPS [CG134, YSEGTFTSDYSILLDKIAQQEFIEWLLAG GPSSGAPPPS]” was tested. Which EC50 (GIPR) did it give?
A: The EC50 was 0.012 nM.

Q: What about the EC50 (GLP-1R) of the same substance?
A: Its EC50 is 2.15 nM.

Q: What about the “GLP-1R agonistic activity” value (GLP-1R) of the same substance?
A: The value was “weaker GLP-1R agonistic activities”.

Q: Which results are given for “YGEGTFTSDYSILLDKIAQREFIEWLLAGGPSSGAPPPS [CG126, YGEGTFTSDYSILLDKIAQREFIEWLLAG GPSSGAPPPS]”?
A: EC50 (GIPR): 0.027 nM; EC50 (GLP-1R): 0.918 nM

Q: Which results are given for “YSEGTFTSDYSILLDKIAQRAFIEWLLAGGPSSGAPPPS [CG121, YSEGTFTSDYSILLDKIAQRAFIEWLLAG GPSSGAPPPS]”?
A: EC50 (GIPR): 0.018 nM; EC50 (GLP-1R): 0.322 nM

Q: “YSEGTFTSDYSILLDKIAQREFIEWLIAGGPSSGAPPPS [CG122, YSEGTFTSDYSILLDKIAQREFIEWLIAG GPSSGAPPPS]” was tested. Which EC50 (GIPR) did it give?
A: Its EC50 is 0.016 nM.

Q: What about the EC50 (GLP-1R) of the same substance?
A: Its EC50 is 0.191 nM.

Q: “YSEGTFTSDYSILLDKIAQRAFVQWLIAGGPSSGAPPPS [CG125, YSEGTFTSDYSILLDKIAQRAFVQWLIAG GPSSGAPPPS]” was tested. Which EC50 (GIPR) did it give?
A: The EC50 was 0.073 nM.

Q: And the EC50 (GLP-1R)?
A: The EC50 was 0.205 nM.

Q: How did the EC50 (GIPR) turn out when “YSEGTFTSDYSILLDKKAQQDFIEWLLAGGPSSGAPPPS [CG136, YSEGTFTSDYSILLDKKAQQDFIEWLLAG GPSSGAPPPS]” was run?
A: The EC50 was 0.05 nM.

Q: What about the EC50 (GLP-1R) of the same substance?
A: Its EC50 is 1.11 nM.

Q: What does the source list for Semaglutide [reference compound]?
A: Random blood glucose 1.5 h (db/db mice; 1.5 h): 15.9 ± 3.4 mM; Random blood glucose 5 h (db/db mice; 5 h): 15.4 ± 4.0 mM; Random blood glucose 7 h (db/db mice; 7 h): 16.3 ± 4.2 mM; Random blood glucose D 0 (db/db mice; Semaglutide once a day, HEC-G20 twice a week, D 0): 25.7 ± 3.7 mM; Random blood glucose D 3 (db/db mice; Semaglutide once a day, HEC-G20 twice a week, D 3): 11.6 ± 4.1 mM; Random blood glucose D 7 (db/db mice; Semaglutide once a day, HEC-G20 twice a week, D 7): 14.9 ± 4.2 mM; Random blood glucose D 10 (db/db mice; Semaglutide once a day, HEC-G20 twice a week, D 10): 17.1 ± 4.2 mM; Random blood glucose D 14 (db/db mice; Semaglutide once a day, HEC-G20 twice a week, D 14): 18.1 ± 3.1 mM; Random blood glucose D 17 (db/db mice; Semaglutide once a day, HEC-G20 twice a week, D 17): 18.5 ± 3.0 mM; Random blood glucose D 21 (db/db mice; Semaglutide once a day, HEC-G20 twice a week, D 21): 18.0 ± 3.3 mM; Random blood glucose D 24 (db/db mice; Semaglutide once a day, HEC-G20 twice a week, D 24): 19.9 ± 2.2 ^a mM; Cumulative food intake D 7-10 (DIO mice; 10 nmol/kg s.c. repeated, D 7-10): 15.7 g/pcs; Weight growth rate D 10 (DIO mice; 10 nmol/kg s.c. repeated, D 10): −17.6 ± 5.1%; Cumulative food intake D 11-13 (DIO mice; 10 nmol/kg s.c. repeated, D 11-13): 20.7 g/pcs; Weight growth rate D 13 (DIO mice; 10 nmol/kg s.c. repeated, D 13): −21.3 ± 5.8%; Cumulative food intake D 14-16 (DIO mice; 10 nmol/kg s.c. repeated, D 14-16): 27.9 g/pcs; Weight growth rate D 16 (DIO mice; 10 nmol/kg s.c. repeated, D 16): −22.3 ± 5.3%; Cumulative food intake D 17-19 (DIO mice; 10 nmol/kg s.c. repeated, D 17-19): 35.7 g/pcs; Weight growth rate D 19 (DIO mice; 10 nmol/kg s.c. repeated, D 19): −21.6 ± 5.6%; Cumulative food intake D 20-22 (DIO mice; 10 nmol/kg s.c. repeated, D 20-22): 41.8 g/pcs; Weight growth rate D 22 (DIO mice; 10 nmol/kg s.c. repeated, D 22): −24.2 ± 6.2%; Cumulative food intake D 23-27 (DIO mice; 10 nmol/kg s.c. repeated, D 23-27): 55.0 ^a g/pcs; Weight growth rate D 25 (DIO mice; 10 nmol/kg s.c. repeated, D 25): −23.2 ± 6.0^a %; Cumulative food intake D 0 (DIO mice; 10 nmol/kg s.c., D 0): 0.7 g/pcs; Weight growth rate D 0 (DIO mice; 10 nmol/kg s.c., D 0): 0.0 ± 0.0%; Cumulative food intake D 1 (DIO mice; 10 nmol/kg s.c., D 1): 1.8 g/pcs; Weight growth rate D 1 (DIO mice; 10 nmol/kg s.c., D 1): −5.3 ± 1.0%; Cumulative food intake D 2 (DIO mice; 10 nmol/kg s.c., D 2): 3.2 g/pcs; Weight growth rate D 2 (DIO mice; 10 nmol/kg s.c., D 2): −7.2 ± 1.2%; Cumulative food intake D 3 (DIO mice; 10 nmol/kg s.c., D 3): 5.3 g/pcs; Weight growth rate D 3 (DIO mice; 10 nmol/kg s.c., D 3): −8.2 ± 1.6%; Cumulative food intake D 4 (DIO mice; 10 nmol/kg s.c., D 4): 8.2 g/pcs; Weight growth rate D 4 (DIO mice; 10 nmol/kg s.c., D 4): −7.4 ± 2.8%; Cumulative food intake D 5 (DIO mice; 10 nmol/kg s.c., D 5): 10.2 g/pcs; Weight growth rate D 5 (DIO mice; 10 nmol/kg s.c., D 5): −6.7 ± 3.7%; Cumulative food intake D 6 (DIO mice; 10 nmol/kg s.c., D 6): 12.5 g/pcs; Weight growth rate D 6 (DIO mice; 10 nmol/kg s.c., D 6): −8.2 ± 3.8%; Weight growth rate D 7 (DIO mice; 10 nmol/kg s.c., D 7): −8.1 ± 4.7%; Liver (DIO mice; liver weight, long-term administration 10 nmol/kg s.c., 72 h after last administration): 1.0 ± 0.2 ^a g; Body weight (DIO mice; [1]): 33.0 ± 2.7^a g; Liver index (DIO mice; [1]): 3.0 ± 0.0 ^a %; ALT (DIO mice; [2]): 19.3 ± 4.3 ^a U/L; AST (DIO mice; [2]): 109.4 ± 9.2 ^a U/L; CHOL (DIO mice; [2]): 2.7 ± 0.4 ^a mmol/L; TRIGL (DIO mice; [2]): 0.7 ± 0.1 mmol/L

Q: Which results are given for “YSEGTFTSDYSILLDKIAQREFIEWLLAGGPSSGAPPPS [CG115, YSEGTFTSDYSILLDKIAQREFIEWLLAG GPSSGAPPPS]”?
A: EC50 (GIPR): 0.005 nM; EC50 (GLP-1R): 0.291 nM

Q: How did the EC50 (GIPR) turn out when “YSEGTFTSDYSILLDKKAQRDFIEWLLAGGPSSGAPPPS [CG127, YSEGTFTSDYSILLDKKAQRDFIEWLLAG GPSSGAPPPS]” was run?
A: Its EC50 is 0.084 nM.

Q: And the EC50 (GLP-1R)?
A: The EC50 was 0.364 nM.

Q: How did the EC50 (GIPR) turn out when “YSEGTFTSDYSILLDKKAQQDFIEWLIAGGPSSGAPPPS [CG137, YSEGTFTSDYSILLDKKAQQDFIEWLIAG GPSSGAPPPS]” was run?
A: Its EC50 is 0.061 nM.

Q: And the EC50 (GLP-1R)?
A: Its EC50 is 0.25 nM.

Q: What does the source list for “YSEGTFTSDYSILLDKIAQQEFIEWLIAGGPSSGAPPPS [CG135, YSEGTFTSDYSILLDKIAQQEFIEWLIAG GPSSGAPPPS]”?
A: EC50 (GIPR): 0.015 nM; EC50 (GLP-1R): 0.558 nM
